According to PubChem BioAssay AID248 (DTP/NCI, 2004):
Where “and” joins values, the source holds several entries; their conditions need not be identical. Equal values may be shown once. Inconclusive results and toxic doses are left out.

Test system: L1210 leukemia ip in BDF1 mice, survival T/C
Experiment: NCI In Vivo Anticancer Drug Screen. Data for tumor model L1210 Leukemia (intraperitoneal) in B6D2F1 (BDF1) mice
Settings: endpoint: mean survival time, higher = longer survival
In short: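 Each compound was tested against a transplantable tumor grown in mice. The endpoint was survival, with treated animals benchmarked against vehicle controls as a simple ratio.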

[1] = dose: 100.0 mg/kg/injection, schedule: Q04DX003 (ip), vehicle: saline
[2] = dose: 200.0 mg/kg/injection, schedule: Q04DX003 (ip), vehicle: saline
[3] = dose: 100.0 mg/kg/injection, schedule: Q01DX001 (ip), vehicle: Klucel (hydroxypropylcellulose) (HPC)
[4] = dose: 200.0 mg/kg/injection, schedule: Q01DX001 (ip), vehicle: Klucel (hydroxypropylcellulose) (HPC)
[5] = dose: 400.0 mg/kg/injection, schedule: Q01DX001 (ip), vehicle: Klucel (hydroxypropylcellulose) (HPC)
[6] = dose: 100.0 mg/kg/injection, schedule: Q01DX001 (ip), vehicle: carboxymethylcellulose (CMC)
[7] = dose: 200.0 mg/kg/injection, schedule: Q01DX001 (ip), vehicle: carboxymethylcellulose (CMC)
[8] = dose: 100.0 mg/kg/injection, schedule: Q01DX009 (ip), vehicle: saline with Tween-80
[9] = dose: 200.0 mg/kg/injection, schedule: Q01DX009 (ip), vehicle: saline with Tween-80
[10] = dose: 400.0 mg/kg/injection, schedule: Q01DX009 (ip), vehicle: saline with Tween-80
[11] = dose: 100.0 mg/kg/injection, schedule: Q01DX009 (ip), vehicle: saline
[12] = dose: 100.0 mg/kg/injection, schedule: Q04DX003 (ip), vehicle: saline with Tween-80
[13] = dose: 200.0 mg/kg/injection, schedule: Q04DX003 (ip), vehicle: saline with Tween-80
[14] = dose: 400.0 mg/kg/injection, schedule: Q04DX003 (ip), vehicle: saline with Tween-80
[15] = dose: 50.0 mg/kg/injection, schedule: Q01DX009 (ip), vehicle: saline

Question: With `CCOC(=O)CC(=O)NCCc1cccc(OC)c1OC` as the compound, how does the T/C [1] read?
Answer: 93 % of control

Question: And the T/C [2]?
Answer: 90 % of control

Question: What about the T/C (dose: 400.0 mg/kg/injection, schedule: Q04DX003 (ip), vehicle: saline) of the same compound?
Answer: 93 % of control

Question: What does the source list for `CCCC/C(C)=N/Nc1ccc([N+](=O)[O-])cc1[N+](=O)[O-]`?
Answer: T/C (dose: 12.5 mg/kg/injection, schedule: Q04DX002 (ip), vehicle: saline with Tween-80): 98 % of control; T/C (dose: 25.0 mg/kg/injection, schedule: Q04DX002 (ip), vehicle: saline with Tween-80): 106 % of control; T/C (dose: 50.0 mg/kg/injection, schedule: Q04DX002 (ip), vehicle: saline with Tween-80): 98 % of control

Question: What does the source list for `Oc1ccc(-c2nc3ccccc3s2)cc1`?
Answer: T/C [3]: 105 % of control; T/C [4]: 113 % of control; T/C [5]: 111 % of control

Question: Which results are given for `O=[N+]([O-])c1cncn1CCN1CCOCC1`?
Answer: T/C [6]: 88 % of control; T/C [7]: 88 % of control; T/C (dose: 400.0 mg/kg/injection, schedule: Q01DX001 (ip), vehicle: carboxymethylcellulose (CMC)): 94 % of control

Question: With `c1ccc(C2=NNC(c3ccccc3)(c3ccccc3)c3ccccc32)cc1` as the compound, how does the T/C (dose: 100.0 mg/kg/injection, schedule: Q01DX001 (ip), vehicle: other) read?
Answer: 96 % of control

Question: And the T/C (dose: 200.0 mg/kg/injection, schedule: Q01DX001 (ip), vehicle: other)?
Answer: 90 % of control

Question: And the T/C (dose: 400.0 mg/kg/injection, schedule: Q01DX001 (ip), vehicle: other)?
Answer: 95 % of control

Question: With `C1CCC(=C(C2CCCC2)C2CCCC2)C1` as the compound, how does the T/C (dose: 75.0 mg/kg/injection, schedule: Q04DX002 (ip), vehicle: saline with Tween-80) read?
Answer: 105 % of control

Question: What about the T/C (dose: 150.0 mg/kg/injection, schedule: Q04DX002 (ip), vehicle: saline with Tween-80) of the same compound?
Answer: 99 % of control

Question: And the T/C (dose: 300.0 mg/kg/injection, schedule: Q04DX002 (ip), vehicle: saline with Tween-80)?
Answer: 99 % of control

Question: Which T/C (dose: 100.0 mg/kg/injection, schedule: Q01DX001 (ip), vehicle: steriod suspending solution) does the source give for `COc1ccc(-n2cccc2)cc1` here?
Answer: 95 % of control

Question: And the T/C (dose: 100.0 mg/kg/injection, schedule: Q04DX002 (ip), vehicle: Klucel (hydroxypropylcellulose) (HPC))?
Answer: 90 % of control

Question: What about the T/C (dose: 200.0 mg/kg/injection, schedule: Q01DX001 (ip), vehicle: steriod suspending solution) of the same compound?
Answer: 100 % of control

Question: And the T/C (dose: 200.0 mg/kg/injection, schedule: Q04DX002 (ip), vehicle: Klucel (hydroxypropylcellulose) (HPC))?
Answer: 90 % of control

Question: What about the T/C (dose: 400.0 mg/kg/injection, schedule: Q01DX001 (ip), vehicle: steriod suspending solution) of the same compound?
Answer: 106 % of control

Question: And the T/C (dose: 400.0 mg/kg/injection, schedule: Q04DX002 (ip), vehicle: Klucel (hydroxypropylcellulose) (HPC))?
Answer: 94 % of control

Question: Which T/C [3] does the source give for `Cc1cnc2c(N)nc(-c3ccccc3)nc2n1` here?
Answer: 94 % of control

Question: And the T/C [4]?
Answer: 103 % of control

Question: What about the T/C [5] of the same compound?
Answer: 100 % of control

Question: For `CN(Cc1ccccc1)C(=O)Nc1cccc(C(F)(F)F)c1`, which T/C [8] is on record?
Answer: 107 % of control

Question: And the T/C [9]?
Answer: 98 % of control

Question: What about the T/C [10] of the same compound?
Answer: 96 % of control

Question: With `O=S(=O)(Cc1ccccc1)C1CCCC1` as the compound, how does the T/C (dose: 100.0 mg/kg/injection, schedule: Q01DX001 (ip), vehicle: saline) read?
Answer: 104 % of control

Question: And the T/C [11]?
Answer: 96 % of control

Question: And the T/C (dose: 100.0 mg/kg/injection, schedule: Q04DX003 (ip), vehicle: acetone)?
Answer: 103 % of control

Question: And the T/C (dose: 200.0 mg/kg/injection, schedule: Q01DX001 (ip), vehicle: saline)?
Answer: 104 % of control

Question: And the T/C (dose: 200.0 mg/kg/injection, schedule: Q01DX009 (ip), vehicle: saline)?
Answer: 110 % of control

Question: And the T/C (dose: 200.0 mg/kg/injection, schedule: Q04DX003 (ip), vehicle: acetone)?
Answer: 97 % of control

Question: And the T/C (dose: 400.0 mg/kg/injection, schedule: Q01DX001 (ip), vehicle: saline)?
Answer: 93 % of control

Question: What about the T/C (dose: 400.0 mg/kg/injection, schedule: Q01DX009 (ip), vehicle: saline) of the same compound?
Answer: 113 % of control

Question: And the T/C (dose: 400.0 mg/kg/injection, schedule: Q04DX003 (ip), vehicle: acetone)?
Answer: 102 % of control

Question: `O=C(N/N=C/c1ccc2c(c1)OCO2)c1ccncc1` was tested. Which T/C [8] did it give?
Answer: 102 % of control

Question: What about the T/C [9] of the same compound?
Answer: 94 % of control

Question: What about the T/C [10] of the same compound?
Answer: 104 % of control

Question: Which T/C [8] does the source give for `COc1cccc(OC)c1C1(O)c2c(OC)cccc2Oc2cccc(OC)c21` here?
Answer: 93 % of control

Question: And the T/C [9]?
Answer: 90 % of control

Question: And the T/C [10]?
Answer: 90 % of control

Question: Which results are given for `CCCCCCCCCCCCCCCCOc1ccccc1C(C)=O`?
Answer: T/C [8]: 92 % of control; T/C [12]: 89 % of control; T/C [9]: 96 % of control; T/C [13]: 98 % of control; T/C [10]: 93 % of control; T/C [14]: 93 % of control

Question: For `O=C(Nc1ccc(C2=NCCN2)cc1)c1cccc2c(C(=O)Nc3ccc(C4=NCCN4)cc3)cccc12`, which T/C (dose: 9.7 mg/kg/injection, schedule: Q01DX Z (ip), vehicle: carboxymethylcellulose (CMC)) is on record?
Answer: 94 % of control

Question: What about the T/C (dose: 14.6 mg/kg/injection, schedule: Q01DX Z (ip), vehicle: carboxymethylcellulose (CMC)) of the same compound?
Answer: 107 % of control

Question: What about the T/C (dose: 22.0 mg/kg/injection, schedule: Q01DX Z (ip), vehicle: carboxymethylcellulose (CMC)) of the same compound?
Answer: 122 % of control

Question: What about the T/C (dose: 30.0 mg/kg/injection, schedule: Q01DX Z (ip), vehicle: carboxymethylcellulose (CMC)) of the same compound?
Answer: 156 % of control

Question: What about the T/C (dose: 33.0 mg/kg/injection, schedule: Q01DX Z (ip), vehicle: carboxymethylcellulose (CMC)) of the same compound?
Answer: 124 % of control

Question: What about the T/C (dose: 49.0 mg/kg/injection, schedule: Q01DX Z (ip), vehicle: carboxymethylcellulose (CMC)) of the same compound?
Answer: 155 % of control

Question: And the T/C (dose: 60.0 mg/kg/injection, schedule: Q01DX Z (ip), vehicle: carboxymethylcellulose (CMC))?
Answer: 204 % of control

Question: And the T/C (dose: 74.0 mg/kg/injection, schedule: Q01DX Z (ip), vehicle: carboxymethylcellulose (CMC))?
Answer: 155 % of control

Question: What about the T/C (dose: 111.0 mg/kg/injection, schedule: Q01DX Z (ip), vehicle: carboxymethylcellulose (CMC)) of the same compound?
Answer: 176 % of control

Question: And the T/C (dose: 120.0 mg/kg/injection, schedule: Q01DX Z (ip), vehicle: carboxymethylcellulose (CMC))?
Answer: 175 % of control

Question: How did the T/C [8] turn out when `COc1ccc(CCOS(=O)(=O)c2ccc(C)cc2)cc1` was run?
Answer: 100 % of control

Question: And the T/C [9]?
Answer: 97 % of control

Question: And the T/C [10]?
Answer: 100 % of control

Question: `N#CCCNc1ccc(NC(=O)C(F)(F)F)cc1` was tested. Which T/C (dose: 25.0 mg/kg/injection, schedule: Q01DX009 (ip), vehicle: saline) did it give?
Answer: 92 % of control

Question: And the T/C [15]?
Answer: 92 % of control

Question: And the T/C [11]?
Answer: 94 % of control

Question: And the T/C [1]?
Answer: 87 % of control

Question: With `CC(=O)OCC(I)CC(F)(F)C(F)(F)C(F)(F)F` (stereo not drawn) as the compound, how does the T/C (dose: 100.0 mg/kg/injection, schedule: Q01DX001 (ip), vehicle: saline with Tween-80) read?
Answer: 98 % of control

Question: And the T/C (dose: 200.0 mg/kg/injection, schedule: Q01DX001 (ip), vehicle: saline with Tween-80)?
Answer: 103 % of control

Question: What about the T/C (dose: 400.0 mg/kg/injection, schedule: Q01DX001 (ip), vehicle: saline with Tween-80) of the same compound?
Answer: 116 % of control

Question: Which T/C [8] does the source give for `Cn1c(CO)cc2ccccc21` here?
Answer: 98 % of control

Question: And the T/C [12]?
Answer: 96 % of control

Question: What about the T/C [9] of the same compound?
Answer: 98 % of control

Question: And the T/C [13]?
Answer: 96 % of control

Question: What about the T/C [10] of the same compound?
Answer: 88 % of control

Question: What about the T/C [14] of the same compound?
Answer: 98 % of control

Question: Which T/C [8] does the source give for `COc1ccc(-c2nnc(-c3ccc(OC)c(Cl)c3)nn2)cc1Cl` here?
Answer: 86 % of control

Question: What about the T/C [9] of the same compound?
Answer: 86 % of control

Question: What does the source list for `CC(C)(C)CN`?
Answer: T/C [15]: 98 % of control; T/C [11]: 93 % of control; T/C [1]: 102 % of control; T/C [2]: 98 % of control

Question: With `CN1c2ccccc2Sc2ccccc21` as the compound, how does the T/C (dose: 50.0 mg/kg/injection, schedule: Q01DX001 (ip), vehicle: carboxymethylcellulose (CMC)) read?
Answer: 94 % of control

Question: And the T/C [6]?
Answer: 96 % of control

Question: And the T/C [7]?
Answer: 107 % of control

Question: `NC(c1ccccc1)C(N)c1ccccc1` (stereo not drawn) was tested. Which T/C (dose: 50.0 mg/kg/injection, schedule: Q01DX009 (ip), vehicle: saline with Tween-80) did it give?
Answer: 104 % of control

Question: What about the T/C [8] of the same compound?
Answer: 102 % of control and 92 % of control

Question: What about the T/C (dose: 100.0 mg/kg/injection, schedule: Q04DX003 (ip), vehicle: other) of the same compound?
Answer: 91 % of control

Question: And the T/C [12]?
Answer: 98 % of control

Question: What about the T/C [9] of the same compound?
Answer: 95 % of control and 110 % of control

Question: And the T/C [13]?
Answer: 96 % of control

Question: What about the T/C [10] of the same compound?
Answer: 98 % of control
